The test system of data set [1] is intracellular amastigotes of L. panamensis. Briefly: in vitro antileishmanial activity on intracellular amastigotes (EGFP strain in U-937 cells, flow cytometry). It is filed as cell-based, Leishmania panamensis. As to conditions: for EC50: intracellular amastigotes of L. panamensis (MHOM/CO/87/UA140-EGFP) in U-937 cells, 72 h, mean ± SD; for IS (Index of Selectivity = LC50/EC50): LC50 (U-937) / EC50 (L. panamensis amastigotes); for antileishmanial activity (in words): 10-50 µM moderately active, > 50 µM low activity. The protocol:
Antileishmanial activity of compounds was determined according to the ability to reduce the infection by L. panamensis parasites, a Leishmania species that is highly prevalent in the Central America and Colombia as causative agent of C.L. For this, the antileishmanial activity was tested on intracellular amastigotes of L. panamensis transfected with the green fluorescent protein gene (MHOM/CO/87/UA140-EGFP strain). […] Plates were incubated at 34 °C and 5% CO2 for 3 h and then cells were washed twice with PBS to eliminate not internalized parasites. […] Cells were washed two times employing PBS, as previously, and after the last wash, the supernatant was discarded and cells were suspended in 500 μL of PBS.
Cells were analyzed by flow cytometry employing a flow cytometer (Cytomics FC 500MPL, Beckman Coulter. Pasadena, CA, USA) reading at 488 nm (exciting) and 525 nm (emitting) over an argon laser and counting 10,000 events. Infected cells were determined according the events for green fluorescence (parasites). All determinations for each compound and standard drug were carried out by triplicate, in two experiments. Infected cells exposed to amphotericin B were used as control for antileishmanial activity (positive control) while infected cells incubated in absence of any compound or drug were used as control for infection (negative control). Nonspecific fluorescence was corrected by subtracting fluorescence of unstained cells. Determinations were done by triplicate in at least two independent experiments.
Antileishmanial activity was determined according reduction of percentage of fluorescent parasites determined according to the median fluorescence intensity (MFI), obtained for each experimental condition by cytometry. The parasite values for each concentration of compound were calculated by Equation (3), where the % of parasites in the control well, corresponds to 100% of parasites:% parasites = (MFI exposed parasites/MFI unexposed parasites) × 100(3)
Results of antileishmanial activities were expressed as the EC50 calculated by Probit method. The compound were classified according to EC50 values using a scale defined by us, based on the hit criteria proposed by Katsuno et al.[25].

Data set [2] has as its system human monocytes (U-937 ATCC CRL-1593.2). The experiment in a line: in vitro. Conditions: for CC50: read-out: LC50, U-937 cells, 72 h, MTT, mean ± SD. The protocol: (§1) Cells exposed to compounds or standard drug were incubated 72 h at 37 °C and 5% of CO2. Cytotoxic activity of each compound was determined according to the effect on the cell viability by the MTT microenzymatic method in which 3-(4,5-dimethylthiazol-2-yl)-2,5-diphenyltetrazolium bromide is reduced to a purple product named formazan by mitochondrial enzyme succinate dehydrogenase. Thus, 10 μL/well of MTT solution (5 mg/mL) were added to each well of exposed and unexposed cells, and plates were incubated at 37 °C, 5% CO2 during 3 h. The reaction was stopped by adding 100 μL/well of isopropanol with 50% and 10% of sodium dodecyl sulfate. The concentration of formazan was determined spectrophotometrically at 570 nm (Varioskan Flash Multimode Reader, Thermo Scientific, Waltham, MA, USA) and intensity of color (absorbance) was registered as O.D. Cells exposed to amphotericin B were used as control for toxicity (positive control) while cell incubated in absence of any compound or drug were used as control for viability (negative control). Non-specific absorbance was corrected by subtracting absorbance (O.D.) of the blank. Determinations were done by triplicate in at least two independent experiments.
(§2) Cytotoxicity was determined according to viability and mortality percentages obtained for each experimental condition (synthetized compounds, amphotericin B and culture medium). […] Initially, viability percentages were calculated by Equation (1), where the O.D. of control well, corresponds to 100% of viability:% viability = (O.D. exposed cells/O.D. unexposed cells) × 100(1)

The next data set in a line: in vitro. Conditions: human. As for the experimental part: as §1, §2

The values below come from PMC6017792, “Hydrazone Derivatives Enhance Antileishmanial Activity of Thiochroman-4-ones” (Molecules : A Journal of Synthetic Chemistry and Natural …, 2017).

Structures are written as SMILES.

In turn, `O=C1CCSc2ccccc21` [Compound 1, thiocroman-4-one] displayed an EC50 in data set [1] of 344 ± 75.6 µM. The CC50 in data set [2] was above 1000 µM.

Consider `CC1C/C(=N\NC(=O)c2ccccc2)c2ccccc2S1` (stereo not shown) [Compound 13, (E)-N′-(2-Methylthiochroman-4-ylidene)benzohydrazide], for which the “IS (Index of Selectivity = LC50/EC50)” value in data set [1] was determined as 3.9. The same compound displayed an EC50 in data set [1] (Leishmania panamensis) of 38.1 ± 16.2 µM. The compound further returned a CC50 at 72 h in “in vitro” of 150 ± 24.3 µM.

For `O=C(N/N=C1\CCSc2ccc(F)cc21)c1ccncc1` [Compound 11, (E)-N′-(6-Fluorothiochroman-4-ylidene)isonicotinohydrazide], the “IS (Index of Selectivity = LC50/EC50)” value in data set [1] was above 16.6. Besides, in data set [1] (Leishmania panamensis), the EC50 came to 39.9 ± 5.3 µM. The compound also registered a CC50 at 72 h in the data set “in vitro” above 664 µM.

Take `O=C(N/N=C1\CC(c2ccccc2)Sc2ccccc21)c1ccncc1` (stereo not shown) [Compound 22, (E)-N′-(2-Phenylthiochroman-4-ylidene)isonicotinohydrazide]: in data set [1], the “IS (Index of Selectivity = LC50/EC50)” value is above 33.9. For the same compound, the EC50 in data set [1] (Leishmania panamensis) stood at 16.4 ± 3.6 µM. The compound also showed a CC50 at 72 h in the data set “in vitro” above 556 µM.

The compound `CC1C/C(=N\NC(=O)c2ccccc2)c2cc(F)ccc2S1` (stereo not shown) [Compound 16, (E)-N′-(6-Fluoro-2-methylthiochroman-4-ylidene)benzohydrazide] displayed an EC50 in data set [1] (Leishmania panamensis) of 43.9 ± 4.5 µM. The CC50 at 72 h in “in vitro” is above 636 µM.

For the compound `CC1C/C(=N\NC(=O)c2ccncc2)c2ccccc2S1` (stereo not shown) [Compound 14, (E)-N′-(2-Methylthiochroman-4-ylidene)isonicotinohydrazide], the “IS (Index of Selectivity = LC50/EC50)” value in data set [1] is listed as above 11.9. In data set [1] (Leishmania panamensis), this compound came in with an EC50 of 56.6 ± 0.7 µM. Moreover, the CC50 at 72 h in “in vitro” is above 672 µM.

`NC(=S)N/N=C1\CC(c2ccccc2)Sc2ccccc21` (stereo not shown) [Compound 20, (E)-2-(2-Phenylthiochroman-4-ylidene)hydrazinecarbothioamide]: the “IS (Index of Selectivity = LC50/EC50)” value in data set [1] is recorded as 9.8. This compound also displayed an EC50 in data set [1] (Leishmania panamensis) of 5.1 ± 1.3 µM. The compound also yielded a CC50 at 72 h in the data set “in vitro” of 50.1 ± 4.1 µM.

Turning to `CC1CC(=O)c2ccccc2S1` (stereo not shown) [Compound 3, 2-Methylthiochroman-4-one], the “IS (Index of Selectivity = LC50/EC50)” value in data set [1] is 1.4. In data set [1] (Leishmania panamensis), this compound showed an EC50 of 445 ± 7.3 µM. Moreover, the CC50 at 72 h in the data set “in vitro” is 604 ± 86.4 µM.

`O=C(N/N=C1\CCSc2ccc(F)cc21)c1ccccc1` [Compound 10, (E)-N′-(6-Fluorothiochroman-4-ylidene)benzohydrazide]: the “IS (Index of Selectivity = LC50/EC50)” value in data set [1] is above 17.6. The compound also had an EC50 in data set [1] (Leishmania panamensis) of 37.3 ± 3.3 µM. For the same compound, the CC50 at 72 h in “in vitro” is above 666 µM.

As for `O=C(N/N=C1\CC(c2ccccc2)Sc2ccccc21)c1ccccc1` (stereo not shown) [Compound 21, (E)-N′-(2-Phenylthiochroman-4-ylidene)benzohydrazide], the EC50 in data set [1] (Leishmania panamensis) was 28.5 ± 2.8 µM. In the data set “in vitro”, this compound showed a CC50 at 72 h of 529 ± 7 µM.

For the compound `NNC(N)=S` [thiosemicarbazide, reference compound], the “antileishmanial activity (in words)” value in data set [1] ([…]) was “inactive”. Also, the EC50 in data set [1] is above 267 µM. Moreover, the CC50 in data set [2] was above 1000 µM.

For the compound `Nc1ccc(C(=O)N/N=C2\CCSc3ccc(F)cc32)cc1` [Compound 12, (E)-4-Amino-N′-(6-fluorothiochroman-4-ylidene)benzohydrazide], the “IS (Index of Selectivity = LC50/EC50)” value in data set [1] is reported as above 6.6. Besides, the midpoint of the response in data set [1] (Leishmania panamensis), the EC50, lay at 95.5 ± 6.9 µM. The CC50 at 72 h in the data set “in vitro” is above 634 µM.

As to `O=C1CCSc2ccc(F)cc21` [Compound 2, 6-Fluorothiochroman-4-one], in data set [1], the “IS (Index of Selectivity = LC50/EC50)” value is recorded as below 6.5. For the same compound, the EC50 in data set [1] (Leishmania panamensis) is above 110 µM. Also, in the data set “in vitro”, the CC50 at 72 h was above 706 µM.

On to `O=C(N/N=C1\CCSc2ccccc21)c1ccccc1` [Compound 6, (E)-N′-(Thiochroman-4-ylidene)benzohydrazide], for which the “IS (Index of Selectivity = LC50/EC50)” value in data set [1] was determined as 3.9. Further, the EC50 in data set [1] (Leishmania panamensis) is 63.7 ± 9.2 µM. In addition, the CC50 at 72 h in “in vitro” worked out at 248 ± 49.6 µM.

With `O=C1CC(c2ccccc2)Sc2ccccc21` (stereo not shown) [Compound 5, 2-Phenylthiochroman-4-one], the “IS (Index of Selectivity = LC50/EC50)” value in data set [1] was above 0.9. Further, in data set [1] (Leishmania panamensis), the EC50 worked out at 44.1 ± 0.9 µM. The “antileishmanial activity (in words)” value in data set [1] (scale b56: EC50 < 10 µM highly active) is recorded as “moderate antileishmanial activity”. In “in vitro”, this compound returned a CC50 at 72 h above 41.6 µM. Besides, in data set [2] (scale b53: LC50 < 100 µM high toxicity, 100-200 µM moderate, > 200 µM potential nontoxicity), the “cytotoxic activity (in words)” value is “high cytotoxic activity”.

On to `CC1C/C(=N\NC(=O)c2ccncc2)c2cc(F)ccc2S1` (stereo not shown) [Compound 17, (E)-N′-(6-Fluoro-2-methylthiochroman-4-ylidene)isonicotinohydrazide], for which the “IS (Index of Selectivity = LC50/EC50)” value in data set [1] is reported as 2.1. The midpoint of the response in data set [1] (Leishmania panamensis), the EC50, lay at 98.9 ± 19.3 µM. Moreover, the CC50 at 72 h in the data set “in vitro” stood at 203 ± 25.4 µM.

For `NC(=O)N/N=C1\CCSc2ccccc21` [Compound 8, (E)-2-(Thiochroman-4-ylidene)hydrazinecarboxamide], the “IS (Index of Selectivity = LC50/EC50)” value in data set [1] is 7.0. The compound further returned an EC50 in data set [1] (Leishmania panamensis) of 91.5 ± 33.4 µM. The CC50 at 72 h in the data set “in vitro” was determined as 637 ± 37.9 µM.

In the case of `O=C(N/N=C1\CCSc2ccccc21)c1ccncc1` [Compound 7, (E)-N′-(Thiochroman-4-ylidene)isonicotinohydrazide], the “IS (Index of Selectivity = LC50/EC50)” value in data set [1] is above 12.4. Also, a half-maximal response in data set [1] (Leishmania panamensis) (EC50) required 56.8 ± 4.54 µM. Besides, the CC50 at 72 h in “in vitro” was found to be 706 µM.

`NC(=O)N/N=C1\CC(c2ccccc2)Sc2ccccc21` (stereo not shown) [Compound 19, (E)-2-(2-Phenylthiochroman-4-ylidene)hydrazinecarboxamide]: in data set [1], the “IS (Index of Selectivity = LC50/EC50)” value is recorded as 18.6. Moreover, in data set [1] (Leishmania panamensis), it took 5.4 ± 1 µM to reach a half-maximal effect (EC50). In “in vitro”, this compound displayed a CC50 at 72 h of 100 ± 19.8 µM.

`C[C@@H]1[C@H](O)[C@@H](C)/C=C/C=C/C=C/C=C/C=C/C=C/C=C/[C@H](O[C@@H]2O[C@H](C)[C@@H](O)[C@H](N)[C@@H]2O)C[C@@H]2O[C@](O)(C[C@@H](O)C[C@@H](O)[C@H](O)CC[C@@H](O)C[C@@H](O)CC(=O)O[C@H]1C)C[C@H](O)[C@H]2C(=O)O` [Amphotericin B, reference compound] displayed an EC50 in data set [1] (Leishmania panamensis) of 0.32 µM. Also, the CC50 at 72 h in the data set “in vitro” was found to be 39.6 ± 8.7 µM.

Consider `CC1C/C(=N\NC(=O)c2ccc(N)cc2)c2cc(F)ccc2S1` (stereo not shown) [Compound 18, (E)-4-Amino-N′-(6-fluoro-2-methylthiochroman-4-ylidene)benzohydrazide], for which the “IS (Index of Selectivity = LC50/EC50)” value in data set [1] is recorded as 0.2. Moreover, the EC50 in data set [1] (Leishmania panamensis) was found to be 161 ± 2.4 µM. Further, in “in vitro”, the CC50 at 72 h is 31 ± 7 µM.

For the compound `CC1CC(=O)c2cc(F)ccc2S1` (stereo not shown) [Compound 4, 6-Fluoro-2-methylthiochroman-4-one], in data set [1], the “IS (Index of Selectivity = LC50/EC50)” value is on record as 1.4. The compound also gave an EC50 in data set [1] (Leishmania panamensis) of 422 ± 9.2 µM. The compound also had a CC50 at 72 h in the data set “in vitro” of 579 ± 59.1 µM.

In the case of `CC1C/C(=N\NC(=O)c2ccc(N)cc2)c2ccccc2S1` (stereo not shown) [Compound 15, (E)-4-Amino-N′-(2-methylthiochroman-4-ylidene)benzohydrazide], the “IS (Index of Selectivity = LC50/EC50)” value in data set [1] is reported as 1.1. This compound registered an EC50 in data set [1] (Leishmania panamensis) of 91.8 ± 13.5 µM. In addition, the CC50 at 72 h in “in vitro” was found to be 102 ± 15.1 µM.
